This test deals with androgen receptor (AR) in LNCaP and/or VCaP cells. Briefly: Androgen Receptor ELISA assay (AR degradation). It counts as cell-based. The conditions noted are these: degradation of AR ELISA in LNCaP and/or VCaP cells; Table 2C; read-out: DC50 Code*. The gist of the method: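 VCaP cells grown ≥3 days, then treated 5 h with compound in media containing 1 nM R1881 (10× stock). Cells lysed and AR quantified by sandwich ELISA (mouse AR detection Ab, HRP anti-mouse, TMB). DC50 and Dmax derived from AR degradation.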
(In an ELISA, binding on a coated surface is turned into a signal by an enzyme label.)

Structures are written as SMILES.

Usually DC50 stands for the concentration at which degradation of the target reaches its halfway point.

Turning to `COc1cc(O[C@H]2C(C)(C)[C@H](NC(=O)c3cnc(N4CC(CN(C(C)C)[C@H]5C[C@H](Oc6ccc7c(c6)C(=O)N(C6CCC(=O)NC6=O)C7=O)C5)C4)cn3)C2(C)C)ccc1C#N` (some centres unmarked) [compound 130, N-((1r,3r)-3-(4-cyano-3-methoxyphenoxy)-2,2,4,4-tetramethylcyclobutyl)-5-(3-((((1r,3r)-3-((2-(2,6-dioxopiperidin-3-yl)-1,3-dioxoisoindolin-5-yl)oxy)cyclobutyl) (isopropyl)amino)methyl)azetidin-1-yl)pyrazine-2-carboxamide], the half-maximal degradation concentration (DC50) lay in the range of 1 to 10 nM.
As for `Cc1cc(O[C@H]2C(C)(C)[C@H](NC(=O)c3cnc(N4CC(CN(C(C)C)[C@H]5C[C@H](Oc6ccc7c(c6)C(=O)N(C6CCC(=O)NC6=O)C7=O)C5)C4)cn3)C2(C)C)cc(C)c1C#N` (some centres unmarked) [compound 131, N-((1r,3r)-3-(4-cyano-3,5-dimethylphenoxy)-2,2,4,4-tetramethylcyclobutyl)-5-(3-((((1r,3r)-3-((2-(2,6-dioxopiperidin-3-yl)-1,3-dioxoisoindolin-5-yl)oxy)cyclobutyl) (isopropyl)amino)methyl)azetidin-1-yl)pyrazine-2-carboxamide], the figure is 1 to 10 nM; as for `Cc1cc(O[C@H]2C(C)(C)[C@H](NC(=O)c3ncc(N4CCC(CN(C(C)C)[C@H]5C[C@H](Oc6ccc7c(c6)C(=O)N(C6CCC(=O)NC6=O)C7=O)C5)CC4)cn3)C2(C)C)cc(C)c1C#N` (some centres unmarked) [compound 132, N-((1r,3r)-3-(4-cyano-3,5-dimethylphenoxy)-2,2,4,4-tetramethylcyclobutyl)-5-(4-((((1r,3r)-3-((2-(2,6-dioxopiperidin-3-yl)-1,3-dioxoisoindolin-5-yl)oxy)cyclobutyl) (isopropyl)amino)methyl)piperidin-1-yl)pyrimidine-2-carboxamide], 1 to 10 nM; as for `Cc1cc(O[C@H]2C(C)(C)[C@H](NC(=O)c3cnc(N4CC(CCN5CCC(Oc6ccc7c(c6)C(=O)N(C6CCC(=O)NC6=O)C7=O)CC5)C4)nc3)C2(C)C)cc(C)c1C#N` (some centres unmarked) [compound 133, N-((1r,3r)-3-(4-cyano-3,5-dimethylphenoxy)-2,2,4,4-tetramethylcyclobutyl)-2-(3-(2-(4-((2-(2,6-dioxopiperidin-3-yl)-1,3-dioxoisoindolin-5-yl)oxy)piperidin-1-yl)ethyl)azetidin-1-yl)pyrimidine-5-carboxamide], 1 to 10 nM.
With `CCOc1cc(O[C@H]2C(C)(C)[C@H](NC(=O)c3cnc(N4CC(CN(C(C)C)[C@H]5C[C@H](Oc6ccc7c(c6)C(=O)N(C6CCC(=O)NC6=O)C7=O)C5)C4)cn3)C2(C)C)ccc1C#N` (some centres unmarked) [compound 134, N-((1r,3r)-3-(4-cyano-3-ethoxyphenoxy)-2,2,4,4-tetramethylcyclobutyl)-5-(3-((((1r,3r)-3-((2-(2,6-dioxopiperidin-3-yl)-1,3-dioxoisoindolin-5-yl)oxy)cyclobutyl) (isopropyl)amino)methyl)azetidin-1-yl)pyrazine-2-carboxamide], the DC50 was in the range of 1 to 10 nM.
On to `COc1cc(O[C@H]2C(C)(C)[C@H](NC(=O)c3cnc(N4CCC(CN(CC(F)F)[C@H]5C[C@H](Oc6cc(OC)c7c(c6)C(=O)N(C6CCC(=O)NC6=O)C7=O)C5)CC4)cn3)C2(C)C)ccc1C#N` (some centres unmarked) [compound 135, N-((1r,3r)-3-(4-cyano-3-methoxyphenoxy)-2,2,4,4-tetramethylcyclobutyl)-5-(4-(((2,2-difluoroethyl)((1r,3r)-3-((2-(2,6-dioxopiperidin-3-yl)-7-methoxy-1,3-dioxoisoindolin-5-yl)oxy)cyclobutyl)amino)methyl)piperidin-1-yl)pyrazine-2-carboxamide], for which the DC50 fell in the range of 1 to 10 nM.
With `COc1cc(O[C@H]2C[C@H](N(CC(F)F)CC3CCN(c4ccc(C(=O)N[C@H]5C(C)(C)[C@H](Oc6ccc(C#N)c(Cl)c6)C5(C)C)cc4)CC3)C2)cc2c1C(=O)N(C1CCC(=O)NC1=O)C2=O` (some centres unmarked) [compound 136, N-((1r,3r)-3-(3-chloro-4-cyanophenoxy)-2,2,4,4-tetramethylcyclobutyl)-4-(4-(((2,2-difluoroethyl)((1r,3r)-3-((2-(2,6-dioxopiperidin-3-yl)-7-methoxy-1,3-dioxoisoindolin-5-yl)oxy)cyclobutyl)amino)methyl)piperidin-1-yl)benzamide], the DC50 lay in the range of 1 to 10 nM.
Consider `COc1cc(O[C@H]2C[C@H](N(CC(F)F)CC3CCN(c4cnc(C(=O)N[C@H]5C(C)(C)[C@H](Oc6ccc(C#N)c(Cl)c6)C5(C)C)cn4)CC3)C2)cc2c1C(=O)N(C1CCC(=O)NC1=O)C2=O` (some centres unmarked) [compound 137, N-((1r,3r)-3-(3-chloro-4-cyanophenoxy)-2,2,4,4-tetramethylcyclobutyl)-5-(4-(((2,2-difluoroethyl)((1r,3r)-3-((2-(2,6-dioxopiperidin-3-yl)-7-methoxy-1,3-dioxoisoindolin-5-yl)oxy)cyclobutyl)amino)methyl)piperidin-1-yl)pyrazine-2-carboxamide], for which the DC50 lay within 10 to 100 nM.
For the compound `CC(C)N(CC1CCN(c2cnc(C(=O)N[C@H]3C(C)(C)[C@H](Oc4ccc(C#N)c(Cl)c4)C3(C)C)cn2)CC1)[C@H]1C[C@H](Oc2ccc3c(c2)C2(CC2)N(C2CCC(=O)NC2=O)C3=O)C1` (some centres unmarked) [compound 138, N-((1r,3r)-3-(3-chloro-4-cyanophenoxy)-2,2,4,4-tetramethylcyclobutyl)-5-(4-((((1r,3r)-3-((2′-(2,6-dioxopiperidin-3-yl)-3′-oxospiro[cyclopropane-1,1′-isoindolin]-6′-yl)oxy)cyclobutyl) (isopropyl)amino)methyl)piperidin-1-yl)pyrazine-2-carboxamide], the DC50 is > 100 nM.
Under `CC1(C)[C@H](NC(=O)c2ccc(N3CCC(CN4CCN(c5ccc6c(c5)C5(CC5)N(C5CCC(=O)NC5=O)C6=O)CC4)CC3)cc2)C(C)(C)[C@H]1Oc1ccc(C#N)c(Cl)c1` (some centres unmarked) [compound 139, N-((1r,3r)-3-(3-chloro-4-cyanophenoxy)-2,2,4,4-tetramethylcyclobutyl)-4-(4-((4-(2′-(2,6-dioxopiperidin-3-yl)-3′-oxospiro[cyclopropane-1,1′-isoindolin]-6′-yl)piperazin-1-yl)methyl)piperidin-1-yl)benzamide] stands > 100 nM; under `CC1(C)[C@H](NC(=O)c2ccn([C@H]3CC[C@H](CCCOc4ccc5c(c4)C(=O)N(C4CCC(=O)NC4=O)C5=O)CC3)n2)C(C)(C)[C@H]1Oc1ccc(C#N)c(Cl)c1` (stereo partly drawn) [compound 140, N-((1r,3R)-3-(3-chloro-4-cyanophenoxy)-2,2,4,4-tetramethylcyclobutyl)-1-((1r,4R)-4-(3-((2-(2,6-dioxopiperidin-3-yl)-1,3-dioxoisoindolin-5-yl)oxy)propyl)cyclohexyl)-1H-pyrazole-3-carboxamide], > 100 nM; under `CC(C)N(CC1CCN(c2cnc(C(=O)N[C@H]3C(C)(C)[C@H](Oc4ccc(C#N)c(Cl)c4)C3(C)C)cn2)CC1)[C@H]1C[C@H](Oc2ccc3c(c2)C(=O)N(C2CCC(=O)NC2=O)C32CC2)C1` (some centres unmarked) [compound 141, N-((1r,3r)-3-(3-chloro-4-cyanophenoxy)-2,2,4,4-tetramethylcyclobutyl)-5-(4-((((1r,3r)-3-((2′-(2,6-dioxopiperidin-3-yl)-3′-oxospiro[cyclopropane-1,1′-isoindolin]-5′-yl)oxy)cyclobutyl) (isopropyl)amino)methyl)piperidin-1-yl)pyrazine-2-carboxamide], > 100 nM.
Consider `CC1(C)[C@H](NC(=O)c2ccc(N3CCC(CN4CCN(c5ccc6c(c5)C(=O)N(C5CCC(=O)N(O)C5=O)C6=O)CC4)CC3)cc2)C(C)(C)[C@H]1Oc1ccc(C#N)c(Cl)c1` (some centres unmarked) [compound 142, N-((1r,3r)-3-(3-chloro-4-cyanophenoxy)-2,2,4,4-tetramethylcyclobutyl)-4-(4-((4-(2-(1-hydroxy-2,6-dioxopiperidin-3-yl)-1,3-dioxoisoindolin-5-yl)piperazin-1-yl)methyl)piperidin-1-yl)benzamide], for which the half-maximal degradation concentration (DC50) was > 100 nM.
Take `Cc1cc(O[C@H]2C(C)(C)[C@H](NC(=O)c3cnc(N4CC(CCN5CCC(Oc6ccc7c(c6)C(=O)N(C6CCC(=O)NC6=O)C7=O)CC5)C4)cn3)C2(C)C)cc(C)c1C#N` (some centres unmarked) [compound 143, N-((1r,3r)-3-(4-cyano-3,5-dimethylphenoxy)-2,2,4,4-tetramethylcyclobutyl)-5-(3-(2-(4-((2-(2,6-dioxopiperidin-3-yl)-1,3-dioxoisoindolin-5-yl)oxy)piperidin-1-yl)ethyl)azetidin-1-yl)pyrazine-2-carboxamide]: the DC50 was > 100 nM.
For the compound `COCCOCCOCCN(CC1CCN(c2ncc(C(=O)N[C@H]3C(C)(C)[C@H](Oc4cc(C)c(C#N)c(C)c4)C3(C)C)cn2)CC1)[C@H]1C[C@H](Oc2ccc3c(c2)C(=O)N(C2CCC(=O)NC2=O)C3=O)C1` (some centres unmarked) [compound 144, N-((1r,3r)-3-(4-cyano-3,5-dimethylphenoxy)-2,2,4,4-tetramethylcyclobutyl)-2-(4-(2-((1r,3r)-3-((2-(2,6-dioxopiperidin-3-yl)-1,3-dioxoisoindolin-5-yl)oxy)cyclobutyl)-5,8,11-trioxa-2-azadodecyl)piperidin-1-yl)pyrimidine-5-carboxamide], the DC50 was < 1 nM.
With `COCCOCCOCCOCCN(CC1CCN(c2ncc(C(=O)N[C@H]3C(C)(C)[C@H](Oc4cc(C)c(C#N)c(C)c4)C3(C)C)cn2)CC1)[C@H]1C[C@H](Oc2ccc3c(c2)C(=O)N(C2CCC(=O)NC2=O)C3=O)C1` (some centres unmarked) [compound 145, N-((1r,3r)-3-(4-cyano-3,5-dimethylphenoxy)-2,2,4,4-tetramethylcyclobutyl)-2-(4-(2-((1r,3r)-3-((2-(2,6-dioxopiperidin-3-yl)-1,3-dioxoisoindolin-5-yl)oxy)cyclobutyl)-5,8,11,14-tetraoxa-2-azapentadecyl)piperidin-1-yl)pyrimidine-5-carboxamide], the half-maximal degradation concentration (DC50) is < 1 nM.
As to `CCN(CC1CCN(c2ccc(C(=O)N[C@H]3C(C)(C)[C@H](Oc4ccc(C#N)c(OC)c4)C3(C)C)cc2)CC1)[C@H]1C[C@H](Oc2ccc3c(c2)C(=O)N(C2CCC(=O)NC2=O)C3=O)C1` (some centres unmarked) [compound 147, N-((1r,3r)-3-(4-cyano-3-methoxyphenoxy)-2,2,4,4-tetramethylcyclobutyl)-4-(4-((((1r,3r)-3-((2-(2,6-dioxopiperidin-3-yl)-1,3-dioxoisoindolin-5-yl)oxy)cyclobutyl)(ethyl)amino)methyl)piperidin-1-yl)benzamide], the DC50 is < 1 nM.

Values taken from patent US20260053932A1, “COMPOUNDS AND METHODS FOR THE TARGETED DEGRADATION OF ANDROGEN RECEPTOR AND ASSOCIATED METHODS OF USE” (Arvinas Operations, Inc., priority 2020, published 2026).
